# Patent US20040175401A1, “Enhanced parmacokinetic profile of hydrophobic substances” (priority 2001, published 2004)
# Read-outs that look alike come from different tables or passages of the source.
# Key:
# [1] = n-octanol/water partition coefficient LogPoct calculated from solubility data; details: calculated as logPoct = (0.99 - logSw)/1.34
# Description: where logSw is the molar solubility and logPoct is the water-oil partition coefficient. Using this equation, values for logPoct can be calculated from solubility data.
# [2] = molar aqueous solubility, log value; cited from earlier work
# [3] = for AUC(0-∞) / Cmax / T1/2 / Tmax: mean, n = 6
# Method: Six Yucatan mini-pigs weighing 20-25 kg were used. […] A total of 6 animals were utilized in a full crossover design where each animal received a 1.0 mg dose by all administration routes in an injection volume of 0.1 mL.
# The intravenous dose was administered an ear vein catheter. Subcutaneous delivery was through a standard 0.5 inch, 30 gauge needle. Delivery to the dermis was through a three point microneedle array having three 34 gauge needles with 7 mm spacing and 1 mm depth to right flank of the animal between the rib cage and the rear leg. Subcutaneous and intravenous administration was by manual injection seconds. Administration to the dermis was at a rate of 90 μL/min by a syringe pump.
# The study design was a full crossover with each animal receiving intravenous, subcutaneous and dermal administration. Each animal received three treatments over a two-week period with a minimal washout period of 2 days between subsequent doses. Dosing was according to the schedule shown below in Table 2.
# Blood samples were obtained from the vena cava access port immediately before dosing and at 5, 10, 15, 20, 30, 45, 60 minutes and 2, 3, 4, 6, 8, 10, 14 and 24 hours after administration. Timing was started at the cessation of injection for a given method. The venous samples were collected into EDTA containing Vacutainer tubes, centrifuged at approximately 1000 g for 10 minutes at 4° C. After centrifugation, the plasma layer was transferred to plastic storage vials and stored frozen at −70° C. until assayed.
# Assay of the pig plasma samples was performed by HPLC analysis. Results are shown below in Tables 3
# Pharmacokinetic parameters were estimated using Watson Drug Metabolism Laboratory Information Management System, version 6.2.0.02 (Innaphase Corp., Philadelphia, Pa.). Parameters determined were the maximal plasma concentration, Cmax, time to maximal plasma concentration Tmax, area under the curve estimated to t=infinity, Tmax and the half-life for decrease in plasma concentration, T1/2.
compound,measurement,setting,value
"CC(=O)Nc1nc2c(ncn2COCCOC(C)=O)c(=O)[nH]1 [N2,O-diacetylacyclovir]",LogPoct,[1],2.75
same,LogSw,[2],−2.70 moles/L
"O=C1NC(=O)C2(CC2)C(=O)N1 [5,5-(CH2)2-barbituric acid]",LogPoct,[1],2.15
"O=C1NC(=O)C(c2ccccc2)(c2ccccc2)N1 [5,5-diphenyhlhydantoin]",LogPoct,[1],3.80
same,LogSw,[2],−4.10 moles/L
CC(C)(C)NC(=O)[C@@H]1C[C@@H]2CCCC[C@@H]2CN1C[C@@H](O)[C@H](Cc1ccccc1)NC(=O)[C@H](CC(N)=O)NC(=O)c1ccc2ccccc2n1 [Saquinavir],LogPoct,[1],3.97
same,LogSw,[2],−4.33 moles/L
CC(C)Nc1cccnc1N1CCN(C(=O)c2cc3cc(NS(C)(=O)=O)ccc3[nH]2)CC1 [delavirdine],LogPoct,[1],4.29
same,LogSw,[2],−4.76 moles/L
CC1(c2ccccc2)C(=O)NC(=O)NC1=O [5-Me-5-phenylbarbituric acid],LogPoct,[1],2.51
same,LogSw,[2],−2.38 moles/L
CCC1(CC)C(=O)NC(=S)NC1=O [5-diethyl-2-thiobarbituric acid],LogPoct,[1],2.36
O=c1[nH]cnc2c1ncn2[C@H]1CC[C@@H](CO)O1 [Didanosine],LogSw,[2],−0.90 moles/L
dimethylthiolethione,LogPoct,[1],3.29
same,LogSw,[2],−3.42 moles/L
CCC1(CC=C(C)C)C(=O)NC(=O)NC1=O [5-Et-5-(3-methylbut-2-enyl)-barbituric acid],LogPoct,[1],2.42
"O=C1NC(=O)C2(CCCCC2)C(=O)N1 [5,5-(CH2)5-barbituric acid]",LogPoct,[1],3.02
"O=C1NC(=O)C(c2ccccc2)(c2ccccc2)C(=O)N1 [5,5-diphenylbarbituric acid]",LogPoct,[1],3.87
"CCCCC(=O)OCN1C(=O)NC(c2ccccc2)(c2ccccc2)C1=O [3-pentanoyloxymethyl-5,5-diphenylhydantoin]",LogSw,[2],−4.68 moles/L
C=CC(=C)CCC=C(C)C [Myrcene],LogPoct,[1],3.41
same,LogSw,[2],−3.58 moles/L
C=CCC1(C)C(=O)NC(=O)NC1=O [5-Me-5-allylbartituric acid],LogPoct,[1],1.60
COc1ccc(-c2cc(=S)ss2)cc1 [Anethole trithione],LogPoct,[1],5.07
"O=C1NC(=S)NC(=O)C12CCCCC2 [5,5-(CH2)5-2-thiobarbituric acid]",LogPoct,[1],3.32
same,LogSw,[2],−3.46 moles/L
CCC1(C)C(=O)NC(=O)NC1=O [5-Me-5-ethylbarbituric acid],LogPoct,[1],1.66
same,LogSw,[2],−1.23 moles/L
CC(C)CN(C[C@@H](O)[C@H](Cc1ccccc1)NC(=O)O[C@H]1CCOC1)S(=O)(=O)c1ccc(N)cc1 [Amprenavir],LogPoct,[1],3.72
same,LogSw,[2],−4.00 moles/L
"O=C1NC(=O)C2(CCCCCCCCCC2)C(=O)N1 [5,5-(CH2)10-barbituric acid]",LogPoct,[1],4.16
same,LogSw,[2],−4.59 moles/L
"O=C1NC(=O)C2(CCCCCCCCCCC2)C(=O)N1 [5,5-(CH2)11-barbituric acid]",LogPoct,[1],5.07
same,LogSw,[2],−5.80 moles/L
"CC(C)C1(C(C)C)C(=O)NC(=O)NC1=O [5,5-di-iPr-barbituric acid]",LogPoct,[1],2.81
CC1(C)C2CC3OC3(C)C1C2 (stereo not shown) [pinene_oxide],LogPoct,[1],2.67
same,LogSw,[2],−2.59 moles/L
O=C1Nc2ccc(Cl)cc2[C@@](C#CC2CC2)(C(F)(F)F)O1 [Efavirenz],LogPoct,[1],4.15
same,LogSw,[2],−4.57 moles/L
CC(=O)/C=C/C1C(C)=CCCC1(C)C (stereo not shown) [a-ionone],LogSw,[2],−3.06 moles/L
C=C(C)[C@H]1CC=C(C)CC1 [limonene],LogSw,[2],−3.41 moles/L
"O=C1NC(=O)C2(CCC2)C(=O)N1 [5,5-(CH2)3-barbituricacid]",LogPoct,[1],1.98
CCCC(C)C1(CC)C(=O)NC(=S)NC1=O (stereo not shown) [5-Et-5-(1-methylbutyl)-2-thiobarbituric acid],LogPoct,[1],3.49
same,LogSw,[2],−3.68 moles/L
C=CCC1(CC)C(=O)NC(=O)NC1=O [5-Et-5-allyl-barbituric acid],LogPoct,[1],1.64
same,LogSw,[2],−1.61 moles/L
"O=C1NC(=O)C2(CCCCCCC2)C(=O)N1 [5,5-(CH2)7-barbituric acid]",LogPoct,[1],2.96
C=CCC1(C(C)C)C(=O)NC(=O)NC1=O [5-iPr-5-allyl-barbituric acid],LogSw,[2],−1.71 moles/L
CC(=O)Nc1nc2c(ncn2COCCO)c(=O)[nH]1 [N2-acetylacyclovir],LogPoct,[1],2.17
S=c1ccss1 [dithiolethione],LogPoct,[1],2.59
"O=C1NC(=O)C2(CCCC2)C(=O)N1 [5,5-(CH2)4-barbituric acid]",LogPoct,[1],3.97
"CN[C@@H]1Cc2cccc3[nH]c(=S)n(c23)C1 [(R)-5,6-dihydro-5-(methylamino)-4H-imidazo[4,5-ij]-quinoline-2(1H)-thione]","Plasma Concentration, Mean","[3]; ID (dermis), 1.0 mg dose, 5 min",24.8 ng/mL
same,"Plasma Concentration, Mean","[3]; ID (dermis), 1.0 mg dose, 10 min",22.5 ng/mL
same,"Plasma Concentration, Mean","[3]; ID (dermis), 1.0 mg dose, 15 min",16.4 ng/mL
same,"Plasma Concentration, Mean","[3]; ID (dermis), 1.0 mg dose, 20 min",18.0 ng/mL
same,"Plasma Concentration, Mean","[3]; ID (dermis), 1.0 mg dose, 30 min",14.0 ng/mL
same,"Plasma Concentration, Mean","[3]; ID (dermis), 1.0 mg dose, 45 min",9.9 ng/mL
same,"Plasma Concentration, Mean","[3]; ID (dermis), 1.0 mg dose, 1 hr",9.0 ng/mL
same,"Plasma Concentration, Mean","[3]; ID (dermis), 1.0 mg dose, 2 hr",5.7 ng/mL
same,"Plasma Concentration, Mean","[3]; ID (dermis), 1.0 mg dose, 3 hr",4.2 ng/mL
same,"Plasma Concentration, Mean","[3]; ID (dermis), 1.0 mg dose, 4 hr",3.6 ng/mL
same,"Plasma Concentration, Mean","[3]; ID (dermis), 1.0 mg dose, 6 hr",0.4 ng/mL
same,"Plasma Concentration, Mean","[3]; ID (dermis), 1.0 mg dose, 8 hr",0 ng/mL
same,"Plasma Concentration, Mean","[3]; ID (dermis), 1.0 mg dose, 10 hr",0 ng/mL
same,"Plasma Concentration, Mean","[3]; ID (dermis), 1.0 mg dose, 14 hr",0 ng/mL
same,"Plasma Concentration, Mean","[3]; ID (dermis), 1.0 mg dose, 24 hr",0 ng/mL
same,AUC(0-∞),"[3]; ID (dermis), 1.0 mg dose",33.6 ng·h/mL
same,Cmax,"[3]; ID (dermis), 1.0 mg dose",26.7 ng/mL
same,T1/2,"[3]; ID (dermis), 1.0 mg dose",96.6 min
same,Tmax,"[3]; ID (dermis), 1.0 mg dose",8.34 min
same,"Heterogeneity of Regression analysis of plasma values, dermis versus intravenous administration","[3]; ID versus IV, both different from SC",not different from each other
same,Cmax values following administration to the dermis compared with subcutaneous administration,"[3]; ID versus SC, 1.0 mg dose",consistently greater
same,Plasma levels of drug after administration into the dermis compared with subcutaneous administration,"[3]; ID versus SC, 1.0 mg dose",higher plasma levels
same,Tmax values following administration to the dermis compared with subcutaneous administration,"[3]; ID versus SC, 1.0 mg dose",consistently lesser
same,"Plasma Concentration, Mean","[3]; IV, 1.0 mg dose, 5 min",29.8 ng/mL
same,"Plasma Concentration, Mean","[3]; IV, 1.0 mg dose, 10 min",20.5 ng/mL
same,"Plasma Concentration, Mean","[3]; IV, 1.0 mg dose, 15 min",18.5 ng/mL
same,"Plasma Concentration, Mean","[3]; IV, 1.0 mg dose, 20 min",15.3 ng/mL
same,"Plasma Concentration, Mean","[3]; IV, 1.0 mg dose, 30 min",13.1 ng/mL
same,"Plasma Concentration, Mean","[3]; IV, 1.0 mg dose, 45 min",10.7 ng/mL
same,"Plasma Concentration, Mean","[3]; IV, 1.0 mg dose, 1 hr",9.1 ng/mL
same,"Plasma Concentration, Mean","[3]; IV, 1.0 mg dose, 2 hr",6.7 ng/mL
same,"Plasma Concentration, Mean","[3]; IV, 1.0 mg dose, 3 hr",2.8 ng/mL
same,"Plasma Concentration, Mean","[3]; IV, 1.0 mg dose, 4 hr",1.6 ng/mL
same,"Plasma Concentration, Mean","[3]; IV, 1.0 mg dose, 6 hr",2.6 ng/mL
same,"Plasma Concentration, Mean","[3]; IV, 1.0 mg dose, 8 hr",0 ng/mL
same,"Plasma Concentration, Mean","[3]; IV, 1.0 mg dose, 10 hr",0 ng/mL
same,"Plasma Concentration, Mean","[3]; IV, 1.0 mg dose, 14 hr",0 ng/mL
same,"Plasma Concentration, Mean","[3]; IV, 1.0 mg dose, 24 hr",0 ng/mL
same,AUC(0-∞),"[3]; IV, 1.0 mg dose",32.4 ng·h/mL
same,Cmax,"[3]; IV, 1.0 mg dose",29.8 ng/mL
same,T1/2,"[3]; IV, 1.0 mg dose",87 min
same,Tmax,"[3]; IV, 1.0 mg dose",4.98 min
same,"Plasma Concentration, Mean","[3]; SC, 1.0 mg dose, 5 min",10.0 ng/mL
same,"Plasma Concentration, Mean","[3]; SC, 1.0 mg dose, 10 min",15.3 ng/mL
same,"Plasma Concentration, Mean","[3]; SC, 1.0 mg dose, 15 min",16.0 ng/mL
same,"Plasma Concentration, Mean","[3]; SC, 1.0 mg dose, 20 min",14.5 ng/mL
same,"Plasma Concentration, Mean","[3]; SC, 1.0 mg dose, 30 min",14.0 ng/mL
same,"Plasma Concentration, Mean","[3]; SC, 1.0 mg dose, 45 min",9.9 ng/mL
same,"Plasma Concentration, Mean","[3]; SC, 1.0 mg dose, 1 hr",8.9 ng/mL
same,"Plasma Concentration, Mean","[3]; SC, 1.0 mg dose, 2 hr",5.6 ng/mL
same,"Plasma Concentration, Mean","[3]; SC, 1.0 mg dose, 3 hr",4.1 ng/mL
same,"Plasma Concentration, Mean","[3]; SC, 1.0 mg dose, 4 hr",2.2 ng/mL
same,"Plasma Concentration, Mean","[3]; SC, 1.0 mg dose, 6 hr",1.6 ng/mL
same,"Plasma Concentration, Mean","[3]; SC, 1.0 mg dose, 8 hr",0.6 ng/mL
same,"Plasma Concentration, Mean","[3]; SC, 1.0 mg dose, 10 hr",0 ng/mL
same,"Plasma Concentration, Mean","[3]; SC, 1.0 mg dose, 14 hr",0 ng/mL
same,"Plasma Concentration, Mean","[3]; SC, 1.0 mg dose, 24 hr",0 ng/mL
same,AUC(0-∞),"[3]; SC, 1.0 mg dose",32.1 ng·h/mL
same,Cmax,"[3]; SC, 1.0 mg dose",16.9 ng/mL
same,T1/2,"[3]; SC, 1.0 mg dose",90 min
same,Tmax,"[3]; SC, 1.0 mg dose",13.3 min
CC(C)=CCC1(C(C)(C)C)C(=O)NC(=O)NC1=O [5-tBu-5-(3-methylbut-2-enyl)-barbituric acid],LogPoct,[1],3.39
